Assay results taken from US10703746B2, “Mutant IDH1 inhibitors useful for treating cancer” (THE UNITED STATES OF AMERICA, AS REPRESENTED BY THE …, priority 2014, dated 2020).

Columns and labels:
IDH1 R132C = IDH1 R132C (Homo sapiens, UniProt O75874, R132C); test: IDH1 R132C enzymatic assay (NADPH depletion coupled to diaphorase/resazurin); format: biochemical
Experimental: (§1) Assays were conducted in a 1536-well black solid-bottom plate with a final assay volume of 9 μL.
For IDH1 R132C, 3 μL of enzyme (0.00032 mg/mL IDH1 […], 10% glycerol, 50 mM potassium phosphate pH 6.5, 5 mM MgCl2, 0.03% BSA) were added to the plate, followed by the addition of 23 nL of test compound in DMSO. The plate was lidded and incubated at room temperature for 30 minutes at which time 3 μL of substrate were added (0.012 mM NADPH, 0.6 mM α-KG, 10% glycerol, 50 mM potassium phosphate pH 6.5, 5 mM MgCl2, 0.03% BSA). […]

IDH1 R132H = IDH1 R132H (Homo sapiens, UniProt O75874, R132H); test: IDH1 R132H enzymatic assay (NADPH depletion coupled to diaphorase/resazurin); format: biochemical
Experimental: as §1
Specifically, for IDH1 R132H, 3 μL of enzyme (4 mM β-ME, 0.0005 mg/mL IDH1 R132H, 150 mM NaCl, 20 mM Tris pH 7.5, 10 mM MgCl2, 0.05% BSA) were added to the plate, followed by the addition of 23 nL of test compound in DMSO. The plate was lidded and incubated at room temperature for 30 minutes at which time 3 μL of substrate were added (0.016 mM NADPH, 2 mM α-KG, 150 mM NaCl, 20 mM Tris pH 7.5, 10 mM MgCl2, 0.05% BSA). This reaction was incubated at room-temperature for 60 minutes at which time the detection mix was added (0.06 mg/mL diaphorase, 0.036 mM resazurin, 150 mM NaCl, 20 mM Tris pH 7.5, 10 mM MgCl2, 0.05% BSA). […]

[1] = IDH1 R132C enzymatic inhibition, IC50 class
[2] = IDH1 R132H enzymatic inhibition, IC50 class
[3] = enzymatic inhibition, IDH1 R132C
[4] = enzymatic inhibition, IDH1 R132H

Sequence of IDH1 R132C (O75874 whole entry R132C): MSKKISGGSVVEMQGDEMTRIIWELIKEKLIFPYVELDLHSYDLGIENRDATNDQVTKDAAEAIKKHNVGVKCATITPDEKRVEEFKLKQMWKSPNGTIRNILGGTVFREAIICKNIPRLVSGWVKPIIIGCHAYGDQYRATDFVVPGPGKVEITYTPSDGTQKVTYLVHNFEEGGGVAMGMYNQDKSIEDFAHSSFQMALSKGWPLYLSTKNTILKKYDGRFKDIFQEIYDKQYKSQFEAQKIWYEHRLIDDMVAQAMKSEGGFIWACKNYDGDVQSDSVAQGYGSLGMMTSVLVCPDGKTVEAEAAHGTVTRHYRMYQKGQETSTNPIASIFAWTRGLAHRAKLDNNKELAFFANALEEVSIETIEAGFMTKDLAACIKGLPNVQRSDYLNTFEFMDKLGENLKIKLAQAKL
Sequence of IDH1 R132H (O75874 whole entry R132H): as the sequence (O75874 whole entry R132C) above, with C132H counted along it

| IC50 (IDH1 R132C; [1]) [nM] | IC50 (IDH1 R132H; [2]) [nM] | IC50 (IDH1 R132C; [3]) [nM] | IC50 (IDH1 R132H; [4]) [nM] | Compound |
| --- | --- | --- | --- | --- |
| 300 to 1000 | 300 to 1000 | – | – | CCc1cccc(CC)c1-n1c(CC(C)C)c(C(=O)N2CCNCC2)cc(-c2coc(-c3ccc(Cl)cc3)n2)c1=O [Compound 643] |
| 300 to 1000 | 1000 to 5000 | – | – | CCc1cccc(CC)c1-n1c(C(C)C)c(C(=O)N2CCN[C@@H](C)C2)cc(-c2nc(-c3ccc(Cl)cc3)cs2)c1=O [Compound 234] |
| – | – | < 300 | < 300 | CCc1cccc(CC)c1-n1c(C=C(C)C)c(C(=O)N2CCNC[C@@H]2C)cc(-c2nc(-c3ccc(C(F)(F)F)cc3)cs2)c1=O [Compound 604] |
| < 300 | 1000 to 5000 | – | – | CCc1cccc(CC)c1-n1c(CC(C)C)c(C(=O)N2CCN[C@@H](C(=O)OC)C2)cc(-c2nc(-c3ccc(Cl)cc3)cs2)c1=O [Compound 131] |
| 300 to 1000 | 300 to 1000 | – | – | COc1ccc(C(F)(F)F)cc1-n1c(C=C(C)C)c(C(=O)N2CCNCC2)cc(-c2nc(-c3ccc(Cl)cc3)cs2)c1=O [Compound 383] |
| 1000 to 5000 | 300 to 1000 | – | – | CCc1ncc(F)cc1-n1c(C=C(C)C)c(C(=O)N2CCNCC2)cc(-c2nc(-c3ccc(C(F)(F)F)nc3)cs2)c1=O [Compound 315] |
| – | – | < 300 | < 300 | CC(C)=Cc1c(C(=O)N2CCNCC2)cc(-c2nc(-c3ccc(Cl)cc3)cs2)c(=O)n1-c1cc(F)ccc1Cl [Compound 409] |
| – | – | 300 to 1000 | < 300 | CCc1ncc(OC)cc1-n1c(C=C(C)C)c(C(=O)N2CCNCC2)cc(-c2nc(-c3ccc(C(F)F)cc3)cs2)c1=O [Compound 427] |
| – | – | 5000 to 20000 | 5000 to 20000 | CC(C)=Cc1c(C(=O)N2CCNCC2)cc(-c2nc(-c3ccc(Cl)cc3)cs2)c(=O)n1-c1ccc[nH]c1=O [Compound 616] |
| < 300 | < 300 | – | – | CCOc1ccc(OCC)c(-n2c(C=C(C)C)c(C(=O)N3CCNCC3)cc(-c3nc(-c4ccc(Cl)cc4)cs3)c2=O)c1 [Compound 348] |
| – | – | < 300 | < 300 | CCc1ccc(Cl)cc1-n1c(C=C(C)C)c(C(=O)N2CCNCC2)cc(-c2nc(-c3ccc(C(F)(F)F)cc3)cs2)c1=O [Compound 576] |
| < 300 | < 300 | – | – | CC(C)=Cc1c(C(=O)N2CCNCC2)cc(-c2nc(-c3ccc(Cl)cc3)cs2)c(=O)n1-c1c(Cl)cccc1OC(C)C [Compound 367] |
| – | – | < 300 | < 300 | CCOc1cccc(CC)c1-n1c(C=C(C)C)c(C(=O)N2CCNCC2)cc(-c2nc(-c3ccc(Cl)cc3)cs2)c1=O [Compound 578] |
| – | – | < 300 | < 300 | CCc1ccc(Cl)cc1-n1c(C=C(C)C)c(C(=O)N2CCNCC2)cc(-c2nc(-c3ccc(C(F)(F)F)nc3)cs2)c1=O [Compound 491] |
| < 300 | < 300 | – | – | CCc1cccc(CC)c1-n1c(C(C)C)c(C(=O)N2CCNC(C(=O)O)C2)cc(-c2nc(-c3ccc(Cl)cc3)cs2)c1=O (stereo not shown) [Compound 88] |
| 300 to 1000 | < 300 | – | – | CCc1cccc(CC)c1-n1c(C)c(C(=O)N2CCNCC2)cc(-c2nc(-c3ccc(Cl)cc3)cs2)c1=O [Compound 300] |

Second part, the molecule before the results:

| Compound | IC50 (IDH1 R132C; [1]) [nM] | IC50 (IDH1 R132H; [2]) [nM] | IC50 (IDH1 R132C; [3]) [nM] | IC50 (IDH1 R132H; [4]) [nM] |
| --- | --- | --- | --- | --- |
| CCc1cccc(C)c1-n1c2c(cc(-c3nc(-c4ccc(Cl)cc4)cs3)c1=O)C(=O)CCC2 [Compound 628] | 1000 to 5000 | 1000 to 5000 | – | – |
| CCc1cccc(CC)c1-n1c2c(cc(-c3nc(-c4ccccn4)cs3)c1=O)C(=O)CC(C)(C)C2 [Compound 200] | 1000 to 5000 | 5000 to 20000 | – | – |
| CCc1cccc(CC)c1-n1c(CC(C)C)c(C(=O)N2CCNCC2)cc(-c2nc(-c3ccc(C#N)cc3)c(C)s2)c1=O [Compound 235] | < 300 | < 300 | – | – |
| Cc1ccc(Cl)c(-n2c3c(cc(-c4nc(-c5ccc(Cl)cc5)cs4)c2=O)C(=O)CC(C)(C)C3)c1 [Compound 613] | – | – | 300 to 1000 | 300 to 1000 |
| CC(C)n1c2c(cc(-c3nc(-c4ccc(Cl)cc4)cs3)c1=O)C(=O)CC(C)(C)C2 [Compound 55] | 1000 to 5000 | > 20000 | – | – |
| CCOC(=O)c1ncsc1-n1c2c(cc(-c3nc(-c4ccc(Cl)cc4)cs3)c1=O)C(=O)CC(C)(C)C2 [Compound 561] | – | – | 1000 to 5000 | 1000 to 5000 |
| CCc1cccc(CC)c1-n1c(C)c(C(=O)N[C@H](C)CO)cc(-c2nc(-c3ccc(Cl)cc3)cs2)c1=O [Compound 176] | 1000 to 5000 | 1000 to 5000 | – | – |
| COc1cc(C(=O)O)ccc1-n1c2c(cc(-c3nc(-c4ccc(Cl)cc4)cs3)c1=O)C(=O)CC(C)(C)C2 [Compound 136] | > 20000 | > 20000 | – | – |
| COc1ccc(F)cc1-n1c2c(cc(-c3nc(-c4ccc(Cl)cc4)cs3)c1=O)C(=O)CC(C)(C)C2 [Compound 669] | 300 to 1000 | 300 to 1000 | – | – |
| CCc1cccc(CC)c1-n1c(C)c(C(=O)NCCCN)cc(-c2nc(-c3ccc(Cl)cc3)cs2)c1=O [Compound 6] | 1000 to 5000 | 1000 to 5000 | – | – |
| CCc1cccc(CC)c1-n1c2c(cc(-c3nc(-c4ccccc4OC)cs3)c1=O)C(=O)CC(C)(C)C2 [Compound 179] | 1000 to 5000 | 1000 to 5000 | – | – |
| COc1ccc(OC)c(-n2c3c(cc(-c4ccc(-c5ccccc5)cc4)c2=O)C(=O)CC(C)(C)C3)c1 [Compound 185] | > 20000 | > 20000 | – | – |
| CC1(C)CC(=O)c2cc(-c3nc(-c4ccc(Cl)cc4)cs3)c(=O)n(-c3ccccc3C3CC3)c2C1 [Compound 50] | 300 to 1000 | 300 to 1000 | – | – |
| O=C1CCCc2c1cc(-c1nc(-c3ccc(Cl)cc3)cs1)c(=O)n2-c1cccc(CO)c1 [Compound 565] | – | – | 5000 to 20000 | 5000 to 20000 |
| CN1CCN(Cc2ccc(-n3c4c(cc(-c5nc(-c6ccc(Cl)cc6)cs5)c3=O)C(=O)CCC4)cc2)CC1 [Compound 360] | > 20000 | > 20000 | – | – |
| CC1(C)CC(=O)c2cc(-c3nc(-c4ccc(Cl)cc4)cs3)c(=O)n(-c3cc(Cl)ccc3Cl)c2C1 [Compound 522] | – | – | 300 to 1000 | 1000 to 5000 |
| CCc1cccc(CC)c1-n1c(C)c(C(=O)NC)cc(-c2nc(-c3ccc(Cl)cc3)cs2)c1=O [Compound 108] | 1000 to 5000 | 1000 to 5000 | – | – |
| CCc1cccc(CC)c1N1C(=O)C(c2nc(-c3ccc(Cl)cc3)cs2)CC(CN2CCNCC2)=C1CC(C)C (stereo not shown) [Compound 617] | 1000 to 5000 | 1000 to 5000 | – | – |
| CCOc1ncc(C)cc1-n1c(C=C(C)C)c(C(=O)N2CCNCC2)cc(-c2nc(-c3ccc(C(F)F)cn3)cs2)c1=O [Compound 592] | – | – | 1000 to 5000 | 300 to 1000 |
| O=C1CCCc2c1cc(-c1nc(-c3ccc(Cl)cc3)cs1)c(=O)n2-c1ccccc1C(F)(F)F [Compound 451] | – | – | 1000 to 5000 | 300 to 1000 |
| COc1cccc(CN2CCN(C)CC2)c1-n1c2c(cc(-c3nc(-c4ccc(Cl)cc4)cs3)c1=O)C(=O)CC(C)(C)C2 [Compound 319] | 5000 to 20000 | 5000 to 20000 | – | – |
| CCc1cccc(CC)c1-n1c(O)c(C(=O)CC(C)C)cc(-c2nc(-c3ccc(Cl)cc3)cs2)c1=O [Compound 392] | 5000 to 20000 | 5000 to 20000 | – | – |
| Cc1cccc(C)c1-n1c2c(cc(-c3nc(-c4ccc(Cl)cc4)cs3)c1=O)C(=O)CC(C)(C)C2 [Compound 215] | 1000 to 5000 | 1000 to 5000 | – | – |
| Cc1noc(-n2c3c(cc(-c4nc(-c5ccc(Cl)cc5)cs4)c2=O)C(=O)CC(C)(C)C3)c1C [Compound 277] | 1000 to 5000 | 1000 to 5000 | – | – |
| COc1ccc(OC)c(-n2c3c(cc(-c4nc(-c5ccc(Cl)cc5)c[nH]4)c2=O)C(=O)CC(C)(C)C3)c1 [Compound 291] | 1000 to 5000 | 1000 to 5000 | – | – |
